# Experimental data published in US12221459B2, “Cancer treatment with (2,2-bishydroxymethyl) methylenecyclopropane nucleotides” (MEDIVIR AB, priority 2018, dated 2025).
# Read-outs that look alike come from different tables or passages of the source.
# How the values were obtained:
# [1] = tested on: THP-1 (human acute monocytic leukemia); test: Leukemia cell line activity assay (Cell Counting Kit-8, 5 days), THP-1
# Description: (§1) Compounds of the invention were evaluated for activity against the leukemia cell lines THP-1, EOL-1 and MV4-11, using the following assay:
# (§2) Test compounds were made up to 10 mM stock solution in DMSO
# (§3) Leukemia cells (THP-1, EOL-1 and MV4-11) were grown in a cell culture flask 75 cm^2 with approximately 100 ml complete cell medium. The cells were counted using a Scepter-hand held automated cell counter, using 60 μm sensors (Millipore) and suspended in complete cell medium to 2×10^5 cells. 100 μl of the cell suspension were seeded to all wells (2×10^4 cells/well).
# (§4) The compounds were tested in twelve concentrations, 10-fold serial dilutions, 50 μM-5×10^−10 μM.
# (§5) 100 μl from a compound dilution plate were transferred to the cell assay plate=200 μl/well total volume and incubated for 5 days, at 37° C., 5% CO2 incubator.
# (§6) After 5 days, 10l of KIT-8 was added and the culture was incubated for 3-4 hours, at 37° C., 5% CO2 incubator.
# (§7) Plate were read in the spectrophotometer at wavelength 450 nm with a reference filter of 620 nm.
# (§8) CC50 values are calculated by plotting the degree of inhibition (compared to the vehicle ctrl) against the logarithm of the compound concentration. Result values in the dilution series are fitted to a 4-parameter sigmoidal dose-response curve described by the expression: F(x)=D+(A−D)/(1+(x/C)^B) where: • A=Minimum • B=Slope. • C=Inflection point. The inflection point is defined as the point on the curve where the curvature changes direction or signs. • D=Maximum • F=fraction inhibition
# [2] = tested on: MV4-11 cells, human B-myelomonocytic leukemia; test: Leukemia cell line activity assay (Cell Counting Kit-8, 5 days), MV4-11
# Description: as §1, §2, §3, §4, §5, §6, §7, §8
# [3] = tested on: EOL-1 (human); test: Leukemia cell line activity assay (Cell Counting Kit-8, 5 days), EOL-1; conditions: read-out: EOL.1 CC50
# Description: as §1, §2, §3, §4, §5, §6, §7, §8
# [4] = Homo sapiens, THP-1, 120 h, read-out: THP-1 CC50, THP-1 cells, 5 days incubation
# [5] = Homo sapiens, MV4-11, 120 h, read-out: MV4-11 CC50, MV4-11 cells, 5 days incubation
# [6] = read-out: THP-1 CC50, THP-1 cells, 5 days incubation
# [7] = read-out: MV4-11 CC50, MV4-11 cells, 5 days incubation
Compound,"CC50 [1, 4] [nM]","CC50 [2, 5] [nM]","CC50 ([3]; Homo sapiens, EOL1, 120 h) [nM]",also measured
"CCCC(CCC)COC(=O)[C@H](C)N[P@](=O)(OCC1(COC(=O)C(C)C)C/C1=C/n1ccc(N)nc1=O)Oc1ccccc1 (single isomer, unassigned) [Example 16-1]",350,190,–,–
"COC(=O)[C@H](CC(C)C)N[P@](=O)(OCC1(COC(=O)C(C)C)C/C1=C/n1cnc2c(=O)[nH]c(N)nc21)Oc1ccccc1 (single isomer, unassigned) [Example 18-2]",1800,800,–,–
"CCC(CC)COC(=O)[C@H](Cc1ccccc1)N[P@](=O)(OCC1(COC(=O)C(C)C)C/C1=C/n1cnc2c(=O)[nH]c(N)nc21)Oc1ccccc1 (single isomer, unassigned) [Example 20-2]",900,380,3600,–
"CCC(CC)COC(=O)[C@H](CC(C)C)N[P@](=O)(OCC1(COC(=O)C(C)C)C/C1=C/n1cnc2c(=O)[nH]c(N)nc21)Oc1ccccc1 (single isomer, unassigned) [Example 21-2]",390,510,–,–
"CCC[C@H](C)OC(=O)[C@H](C)N[P@](=O)(OCC1(COC(=O)C(C)C)C/C1=C/n1ccc(N)nc1=O)Oc1ccccc1 (single isomer, unassigned) [Example 28-2]",880,1000,–,–
"CCCC(=O)OCC1(CO[P@@](=O)(N[C@@H](C)C(=O)O[C@@H](C)CCC)Oc2ccccc2)C/C1=C/n1ccc(N)nc1=O (single isomer, unassigned) [Example 29-1]",710,1200,–,–
"CCCC(=O)OCC1(CO[P@@](=O)(N[C@@H](C)C(=O)OCC(CCC)CCC)Oc2ccccc2)C/C1=C/n1ccc(N)nc1=O (single isomer, unassigned) [Example 32-1]",–,–,59,"CC50 [1, 6]: 190 nM; CC50 [2, 7]: 180 nM"
"CCC(CC)COC(=O)C[C@H](N[P@](=O)(OCC1(COC(=O)C(C)C)C/C1=C/n1cnc2c(=O)[nH]c(N)nc21)Oc1ccccc1)C(=O)OCC(CC)CC (single isomer, unassigned) [Example 35-1]",290,180,–,–
"CCCC(CCC)COC(=O)[C@H](C)N[P@](=O)(OCC1(COC(=O)C(C)C)C/C1=C/n1cc(F)c(N)nc1=O)Oc1ccccc1 (single isomer, unassigned) [Example 39-2]",600,2600,–,–
"CCCC(=O)OCC1(CO[P@@](=O)(N[C@@H](C)C(=O)OCC(CCC)CCC)Oc2ccccc2)C/C1=C/n1ccc(N)nc1=O (single isomer, unassigned) [Example 45-1]",–,–,–,"CC50 ([3]; EOL-1 cells, 5 days incubation): 59 nM; CC50 [1, 6]: 190 nM; CC50 [2, 7]: 180 nM"
"CCCC(=O)OCC1(CO[P@@](=O)(N[C@@H](C)C(=O)OCC(CCC)CCC)Oc2ccccc2)C/C1=C/n1ccc(N)nc1=O (single isomer, unassigned) [Example 45-2]",–,–,–,"CC50 [1, 6]: 2000 nM; CC50 [2, 7]: 2200 nM"
"Nc1nc2c(ncn2/C=C2/CC2(CO)CO)c(=O)[nH]1 [Cyclopropavir, 2,2-bis-(hydroxymethyl) cyclopropylidene methyl guanine, reference compound]",–,–,11000,"CC50 ([1]; Homo sapiens, THP-1, 120 h, read-out: THP-1 CC50): 5100 nM; CC50 ([2]; Homo sapiens, MV4-11, 120 h, read-out: MV4-11 CC50): 11000 nM"
"CCCC(CCC)COC(=O)[C@H](C)N[P@](=O)(OC[C@@]1(COC(=O)[C@@H](N)C(C)C)C/C1=C/n1cnc2c(=O)[nH]c(N)nc21)Oc1ccccc1 [Example 1f-1, (S)-((S,Z)-2-((2-Amino-6-oxo-1H-purin-9(6H)-yl)methylene)-1-((((S)-(((S)-1-oxo-1-((2-propylpentyl)oxy)propan-2-yl)amino)(phenoxy)phosphoryl)oxy)methyl)cyclopropyl)methyl 2-amino-3-methylbutanoate]",670,460,120,–
"CCC[C@H](C)OC(=O)[C@H](C)N[P@](=O)(OC[C@@]1(COC(=O)C(C)C)C/C1=C/n1cnc2c(=O)[nH]c(N)nc21)Oc1ccccc1 [Example 6-2, ((S,Z)-2-((2-amino-6-oxo-1H-purin-9(6H)-yl)methylene)-1-((((S)-(((S)-1-oxo-1-((S)-pentan-2-yloxy)propan-2-yl)amino)(phenoxy)phosphoryl)oxy)methyl)cyclopropyl)methyl isobutyrate]",740,430,190,–
"CCCC(=O)OC[C@]1(CO[P@@](=O)(N[C@@H](C)C(=O)OCC(CCC)CCC)Oc2ccccc2)C/C1=C/n1cnc2c(=O)[nH]c(N)nc21 [Example 11-1, ((S,Z)-2-((2-Amino-6-oxo-1H-purin-9(6H)-yl)methylene)-1-((((S)-(((S)-1-oxo-1-((2-propylpentyl)oxy)propan-2-yl)amino)(phenoxy)phosphoryl)oxy)methyl)cyclopropyl)methyl butyrate]",190,71,140,–
"CCCC(=O)OC[C@]1(CO[P@@](=O)(N[C@@H](C)C(=O)O[C@@H](C)CCC)Oc2ccc(Br)cc2)C/C1=C/n1cnc2c(=O)[nH]c(N)nc21 [Example 12-1, ((S,Z)-2-((2-Amino-6-oxo-1H-purin-9(6H)-yl)methylene)-1-((((S)-(4-bromophenoxy)(((S)-1-oxo-1-((S)-pentan-2-yloxy)propan-2-yl)amino)phosphoryl)oxy)methyl)cyclopropyl)methyl butyrate]",290,–,170,–
"CCCC(CCC)COC(=O)[C@H](C)N[P@](=O)(OC[C@@]1(COC(C)=O)C/C1=C/n1cnc2c(=O)[nH]c(N)nc21)Oc1ccccc1 [Example 13-1, (S)-2-propylpentyl 2-(((S)-(((S,Z)-1-(acetoxymethyl)-2-((2-amino-6-oxo-1H-purin-9(6H)-yl)methylene)cyclopropyl)methoxy)(phenoxy)phosphoryl)amino)propanoate]",870,1100,–,–
"CCC[C@H](C)OC(=O)[C@H](C)N[P@](=O)(OC[C@@]1(COC(=O)[C@@H](N)C(C)C)C/C1=C/n1cnc2c(=O)[nH]c(N)nc21)Oc1ccccc1 [Example 15-1, (S)-((S,Z)-2-((2-amino-6-oxo-1H-purin-9(6H)-yl)methylene)-1-((((S)-(((S)-1-oxo-1-((S)-pentan-2-yloxy)propan-2-yl)amino)(phenoxy)phosphoryl)oxy)methyl)cyclopropyl)methyl 2-amino-3-methylbutanoate]",1000,–,–,–
"CCC(CC)COC(=O)[C@H](Cc1ccccc1)N[P@](=O)(OCC1(COC(=O)[C@@H](N)C(C)C)C/C1=C/n1cnc2c(=O)[nH]c(N)nc21)Oc1ccccc1 (stereo partly drawn) [Example 23, ((Z)-2-((2-amino-6-oxo-1,6-dihydro-9H-purin-9-yl)methylene)-1-((((S)-(((S)-1-(2-ethylbutoxy)-1-oxo-3-phenylpropan-2-yl)amino)(phenoxy)phosphoryl)oxy)methyl)cyclopropyl)methyl L-valinate]",2400,850,–,–
"CCCCCCCCCCCCCCCCCC(=O)OCC1(CO[P@@](=O)(N[C@@H](C)C(=O)O[C@@H](C)CCC)Oc2ccccc2)C/C1=C/n1cnc2c(=O)[nH]c(N)nc21 (stereo partly drawn) [Example 24, ((Z)-2-((2-amino-6-oxo-1,6-dihydro-9H-purin-9-yl)methylene)-1-((((S)-(((S)-1-oxo-1-(((S)-pentan-2-yl)oxy)propan-2-yl)amino)(phenoxy)phosphoryl)oxy)methyl)cyclopropyl)methyl stearate]",3800,2100,–,–
"CCC(CC)COC(=O)[C@H](Cc1ccccc1)N[P@](=O)(OCC1(COC(=O)C(C)C)C/C1=C/n1ccc(N)nc1=O)Oc1ccccc1 (stereo partly drawn) [Example 25-2, 2-ethylbutyl((S)-(((Z)-2-((4-amino-2-oxopyrimidin-1 (2H)-yl)methylene)-1-((isobutyryloxy)methyl)cyclopropyl)methoxy)(phenoxy)phosphoryl)-L-phenylalaninate]",–,–,–,"CC50 ([3]; EOL-1 cells, 5 days incubation): 100 nM; CC50 [1, 6]: 410 nM; CC50 [2, 7]: 86 nM"
"CCCC(=O)OCC1(CO[P@@](=O)(N[C@@H](C)C(=O)O[C@@H](C)CCC)Oc2ccccc2)C/C1=C/n1cnc2c(=O)[nH]c(N)nc21 (stereo partly drawn) [Example 30-1, ((Z)-2-((2-amino-6-oxo-1,6-dihydro-9H-purin-9-yl)methylene)-1-((((S)-(((S)-1-oxo-1-(((S)-pentan-2-yl)ox)propan-2-yl)amino)(phenoxy)phosphoryl)oxy)methyl)cyclopropyl)methyl butyrate]",460,430,940,–
"CCC(CC)COC(=O)[C@H](CC(C)C)N[P@](=O)(OCC1(COC(=O)C(C)C)C/C1=C/n1ccc(N)nc1=O)Oc1ccccc1 (stereo partly drawn) [Example 34-2, 2-ethylbutyl((S)-(((Z)-2-((4-amino-2-oxopyrimidin-1(2H)-yl)methylene)-1-((isobutyryloxy)methyl)cyclopropyl)methoxy)(phenoxy)phosphoryl)-L-leucinate]",–,–,–,"CC50 ([3]; EOL-1 cells, 5 days incubation): 170 nM; CC50 [1, 6]: 340 nM; CC50 [2, 7]: 440 nM"
"CCCC(=O)OCC1(CO[P@@](=O)(N[C@@H](C)C(=O)OCC(CCC)CCC)Oc2ccccc2)C/C1=C/n1cc(F)c(N)nc1=O (stereo partly drawn) [Example 40, ((Z)-2-((4-amino-5-fluoro-2-oxopyrimidin-1(2H)-yl)methylene)-1-((((S)-(((S)-1-oxo-1-((2-propylpentyl)oxy)propan-2-yl)amino)(phenoxy)phosphoryl)oxy)methyl)cyclopropyl)methyl butyrate]",–,3100,–,–
"(S)-(S)-Pentan-2-yl 2-(((S)-(((S,Z)-1-(acetoxymethyl)-2-((2-amino-6-oxo-1H-purin-9(6H)-yl)methylene)cyclopropyl)methoxy)(4-bromophenoxy)phosphoryl)amino) [Example 8-1]",–,–,–,"CC50 ([3]; EOL-1 cells, 5 days incubation): 340 nM; CC50 [1, 6]: 260 nM"
